One assay has as its target KRAS G12D (Homo sapiens (Human), UniProt P01116, G12D). As to the kind of experiment: KRAS G12D LoEnz Biochemical Assay, BODIPY-GDP Exchange TR-FRET (SOS1-mediated nucleotide exchange). The conditions noted are these: read-out: KRas (G12D) GDP HTRF IC50. (In general: Time-resolved FRET reads energy transfer from a long-lived donor to a nearby acceptor.)
The target in a further assay is KRAS WT (Homo sapiens (Human), UniProt P01116). As to the kind of experiment: KRAS WT Biochemical Assay, BODIPY-GDP Exchange TR-FRET (Example 502; 0.06 nM KRAS WT, 15 nM GDP, 300 nM SOS1, 120-minute incubation). The note with it: read-out: KRas HTRF IC50. A digest of the protocol: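 Biotin-tagged recombinant KRAS WT (0.06 nM) preloaded with 15 nM GDP and Tb-streptavidin, 10 min RT, then exchange started with 300 nM SOS1 plus 300 nM BODIPY-GDP in HEPES pH 7.5 buffer with MgCl2. TR-FRET 520/490 ratio read after 120 min; normalized to DMSO and full-inhibition control; IC50 from 4-parameter fit.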

Each structure is given as a SMILES string.

KRAS G12D, sequence (P01116-2 other isoform, or with tags, fused parts or gaps G12D): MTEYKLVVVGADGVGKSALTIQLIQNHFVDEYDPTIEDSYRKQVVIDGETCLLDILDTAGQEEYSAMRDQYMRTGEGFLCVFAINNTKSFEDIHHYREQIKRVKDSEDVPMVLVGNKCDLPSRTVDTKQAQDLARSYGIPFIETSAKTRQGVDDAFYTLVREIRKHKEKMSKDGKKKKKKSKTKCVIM
KRAS WT, sequence (P01116-2 other isoform, or with tags, fused parts or gaps): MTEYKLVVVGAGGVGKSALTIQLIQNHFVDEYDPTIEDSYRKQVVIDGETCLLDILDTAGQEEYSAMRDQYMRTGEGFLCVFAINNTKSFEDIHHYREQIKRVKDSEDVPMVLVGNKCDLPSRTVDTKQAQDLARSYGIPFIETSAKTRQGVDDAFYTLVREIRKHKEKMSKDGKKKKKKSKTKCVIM

By IC50 is commonly meant the concentration needed to halve the response being measured. With `C=C1CN2CCC[C@@]2(COc2nc3c4c(nc(-c5cc(N)c(F)c(C)c5C(F)(F)F)c(F)c4n2)O[C@@H](C)[C@@H]2[C@@H]4CC[C@H](CN32)N4)C1` [Compound 57, 2-Fluoro-5-((5S,5aS,6S,9R)-1-fluoro-5-methyl-12-(((S)-2-methylenetetrahydro-1H-pyrrolizin-7a(5H)-yl)methoxy)-5a,6,7,8,9,10-hexahydro-5H-4-oxa-3,10a,11,13,14-pentaaza-6,9-methanonaphtho[1,8-ab]heptalen-2-yl)-3-methyl-4-(trifluoromethyl) aniline], the figures for the half-inhibitory concentration (IC50) at KRAS G12D and on KRAS WT were 0.16 nM and 0.633 nM, respectively.
The matching figures for `Cc1c(F)c(N)cc(-c2nc3c4c(nc(OC[C@]56CCCN5C[C@H](F)[C@@H]6F)nc4c2F)N2C[C@H]4CC[C@H](N4)[C@H]2[C@H](C)O3)c1C(F)(F)F` (single isomer, unassigned) [143 (isomer 1)]: 0.22 nM and 28.1 nM.
Take `Cc1c(F)c(N)cc(-c2nc3c4c(nc(OC[C@@]56CCCN5C/C(=C\F)C6)nc4c2F)N2C[C@H]4CC[C@H](N4)[C@H]2[C@H](C)O3)c1C(F)(F)F` [Compound 64, 2-fluoro-5-((5S,5aS,6S,9R)-1-fluoro-12-(((S,Z)-2-(fluoromethylene)tetrahydro-1H-pyrrolizin-7a(5H)-yl)methoxy)-5-methyl-5a,6,7,8,9,10-hexahydro-5H-4-oxa-3,10a,11,13,14-pentaaza-6,9-methanonaphtho[1,8-ab]heptalen-2-yl)-3-methyl-4-(trifluoromethyl)aniline]: the IC50 was determined as 0.12 nM at KRAS G12D and 0.738 nM on KRAS WT.
The matching figures for `C[C@@H]1Oc2nc(-c3cccc4ccc(N)nc34)c(F)c3nc(OC[C@@]45CCCN4C[C@H](F)C5)nc(c23)N2C[C@H]3CC[C@H](N3)[C@@H]12` [Compound 114, 8-((5S,5aS,6S,9R)-1-Fluoro-12-(((2R,7aS)-2-fluorotetrahydro-1H-pyrrolizin-7a(5H)-yl)methoxy)-5-methyl-5a,6,7,8,9,10-hexahydro-5H-4-oxa-3,10a,11,13,14-pentaaza-6,9-methanonaphtho[1,8-ab]heptalen-2-yl)quinolin-2-amine]: 135 nM and 36700 nM.
For the molecule `Cc1c(F)c(N)cc(-c2nc3c4c(nc(OC[C@H]5CC(F)(F)CN5C)nc4c2F)N2C[C@H]4CC[C@H](N4)[C@H]2[C@H](C)O3)c1C(F)(F)F` [Compound 66, 5-((5S,5aS,6S,9R)-12-(((R)-4,4-difluoro-1-methylpyrrolidin-2-yl)methoxy)-1-fluoro-5-methyl-5a,6,7,8,9,10-hexahydro-5H-4-oxa-3,10a,11,13,14-pentaaza-6,9-methanonaphtho[1,8-ab]heptalen-2-yl)-2-fluoro-3-methyl-4-(trifluoromethyl)aniline], the concentration for half-maximal inhibition (IC50) on KRAS G12D turned out to be 2.29 nM; at KRAS WT, 274 nM.
As for `C[C@@H]1Oc2nc(-c3[nH]c(=O)cc4ccccc34)c(F)c3nc(OC[C@@]45CCCN4C[C@H](F)C5)nc(c23)N2C[C@H]3CC[C@H](N3)[C@@H]12` [Compound 105, 1-((5S,5aS,6S,9R)-1-Fluoro-12-(((2R,7aS)-2-fluorotetrahydro-1H-pyrrolizin-7a(5H)-yl)methoxy)-5-methyl-5a,6,7,8,9,10-hexahydro-5H-4-oxa-3,10a,11,13,14-pentaaza-6,9-methanonaphtho[1,8-ab]heptalen-2-yl)isoquinolin-3(2H)-one], the figures for the IC50 at KRAS G12D and at KRAS WT were 141 nM and 9700 nM, respectively.
The matching figures for `Cc1c(F)c(N)cc(-c2nc3c4c(nc(OC[C@@H]5CC(F)(F)CN5C)nc4c2F)N2C[C@H]4CC[C@H](N4)[C@H]2[C@H](C)O3)c1C(F)(F)F` [Compound 65, 5-((5S,5aS,6S,9R)-12-(((S)-4,4-Difluoro-1-methylpyrrolidin-2-yl)methoxy)-1-fluoro-5-methyl-5a,6,7,8,9,10-hexahydro-5H-4-oxa-3,10a,11,13,14-pentaaza-6,9-methanonaphtho[1,8-ab]heptalen-2-yl)-2-fluoro-3-methyl-4-(trifluoromethyl)aniline]: 1.72 nM and 377 nM.
On to `Cc1c(F)c(N)cc(-c2nc3c4c(nc(OCCCN5C[C@H]6C[C@@H]5CO6)nc4c2F)N2C[C@H]4CC[C@H](N4)[C@H]2[C@H](C)O3)c1C(F)(F)F` [Compound 163, 5-((5S,5aS,6S,9R)-12-(3-((1R,4R)-2-Oxa-5-azabicyclo[2.2.1]heptan-5-yl)propoxy)-1-fluoro-5-methyl-5a,6,7,8,9,10-hexahydro-5H-4-oxa-3,10a,11,13,14-pentaaza-6,9-methanonaphtho[1,8-ab]heptalen-2-yl)-2-fluoro-3-methyl-4-(trifluoromethyl)aniline], for which the IC50 on KRAS G12D is 0.11 nM; at KRAS WT it was 19.6 nM.
The corresponding values for `Cc1c(F)c(N)cc(-c2nc3c4c(nc(OC[C@@H](F)CN5CC6(COC6)C5)nc4c2F)N2C[C@H]4CC[C@H](N4)[C@H]2[C@H](C)O3)c1C(F)(F)F` [Compound 145] are 0.67 nM and 171 nM.
With `Cc1c(F)c(N)cc(-c2nc3c4c(nc(OC[C@@]56C[C@H](F)CN5C[C@H](F)C6)nc4c2F)N2C[C@H]4CC[C@H](N4)[C@H]2[C@H](C)O3)c1C(F)(F)F` [Compound 142, 5-((5S,5aS,6S,9R)-12-(((2R,6S,7as)-2,6-Difluorotetrahydro-1H-pyrrolizin-7a(5H)-yl)methoxy)-1-fluoro-5-methyl-5a,6,7,8,9,10-hexahydro-5H-4-oxa-3,10a,11,13,14-pentaaza-6,9-methanonaphtho[1,8-ab]heptalen-2-yl)-2-fluoro-3-methyl-4-(trifluoromethyl)aniline], the values for the IC50 on KRAS G12D and on KRAS WT were 0.2 nM and 33.2 nM, respectively.
Take `Cc1c(F)c(N)cc(-c2nc3c4c(nc(OC[C@]56C[C@H](F)CN5C[C@H](F)C6)nc4c2F)N2C[C@H]4CC[C@H](N4)[C@H]2[C@H](C)O3)c1C(F)(F)F` [Compound 141, 5-((5S,5aS,6S,9R)-12-(((2R,6S,7ar)-2,6-Difluorotetrahydro-1H-pyrrolizin-7a(5H)-yl)methoxy)-1-fluoro-5-methyl-5a,6,7,8,9,10-hexahydro-5H-4-oxa-3,10a,11,13,14-pentaaza-6,9-methanonaphtho[1,8-ab]heptalen-2-yl)-2-fluoro-3-methyl-4-(trifluoromethyl)aniline]: the IC50 on KRAS G12D is 0.26 nM; on KRAS WT it was 85 nM.
The matching figures for `Cc1cc(N)c(F)c(-c2nc3c4c(nc(OC[C@@H]5CC[C@H]6COCCN65)nc4c2F)N2C[C@H]4CC[C@H](N4)[C@H]2[C@H](C)O3)c1C1CC1` [Compound 98, 4-Cyclopropyl-2-fluoro-3-((5S,5aS,6S,9R)-1-fluoro-12-(((6S,8aS)-hexahydro-1H-pyrrolo[2,1-c][1,4]oxazin-6-yl)methoxy)-5-methyl-5a,6,7,8,9,10-hexahydro-5H-4-oxa-3,10a,11,13,14-pentaaza-6,9-methanonaphtho[1,8-ab]heptalen-2-yl)-5-methylaniline]: 4.25 nM and 553 nM.
Take `Cc1c(F)c(N)cc(-c2nc3c4c(nc(OC[C@]5(CCF)CCCN5C)nc4c2F)N2C[C@H]4CC[C@H](N4)[C@H]2[C@H](C)O3)c1C(F)(F)F` (single isomer, unassigned) [127 (isomer 2)]: the IC50 at KRAS G12D stood at 0.19 nM; on KRAS WT, 37.7 nM.
The matching figures for `Cc1c(F)c(N)cc(-c2nc3c4c(nc(OCC5CCC6CN(C)C(=O)CN56)nc4c2F)N2C[C@H]4CC[C@H](N4)[C@H]2[C@H](C)O3)c1C(F)(F)F` (mixture of isomers) [Compound 124, 6-((((5S,5aS,6S,9R)-2-(5-Amino-4-fluoro-3-methyl-2-(trifluoromethyl)phenyl)-1-fluoro-5-methyl-5a,6,7,8,9,10-hexahydro-5H-4-oxa-3,10a,11,13,14-pentaaza-6,9-methanonaphtho[1,8-ab]heptalen-12-yl)oxy)methyl)-2-methylhexahydropyrrolo[1,2-a]pyrazin-3(4H)-one]: 1.74 nM and 619 nM.
The corresponding values for `Cc1c(F)c(N)c(F)c(-c2nc3c4c(nc(OC[C@@]56CCCN5C[C@H](F)C6)nc4c2F)N2C[C@H]4CC[C@H](N4)[C@H]2[C@H](C)O3)c1C(F)(F)F` [Compound 91, 2,6-Difluoro-3-((5S,5aS,6S,9R)-1-fluoro-12-(((2R,7aS)-2-fluorotetrahydro-1H-pyrrolizin-7a(5H)-yl)methoxy)-5-methyl-5a,6,7,8,9,10-hexahydro-5H-4-oxa-3,10a,11,13,14-pentaaza-6,9-methanonaphtho[1,8-ab]heptalen-2-yl)-5-methyl-4-(trifluoromethyl)aniline] are 0.182 nM and 5.71 nM.
For the molecule `Cc1c(F)c(N)cc(-c2nc3c4c(nc(OCC5(CN6C[C@H]7C[C@@H]6CO7)CC5)nc4c2F)N2C[C@H]4CC[C@H](N4)[C@H]2[C@H](C)O3)c1C(F)(F)F` [Compound 170, 5-((5S,5aS,6S,9R)-12-((1-(((1R,4R)-2-Oxa-5-azabicyclo[2.2.1]heptan-5-yl)methyl)cyclopropyl)methoxy)-1-fluoro-5-methyl-5a,6,7,8,9,10-hexahydro-5H-4-oxa-3,10a,11,13,14-pentaaza-6,9-methanonaphtho[1,8-ab]heptalene-2-yl)-2-fluoro-3-methyl-4-(trifluoromethyl)aniline], the IC50 on KRAS G12D was found to be 0.09 nM; at KRAS WT, 2.16 nM.
In the case of `Cc1c(F)c(N)cc(-c2nc3c4c(nc(OC[C@@H]5CCC6CC(F)(F)CCN65)nc4c2F)N2C[C@H]4CC[C@H](N4)[C@H]2[C@H](C)O3)c1C(F)(F)F` (single isomer, unassigned) [119 (isomer 2)], the IC50 turned out to be 0.37 nM on KRAS G12D and 75 nM at KRAS WT.
